Results as given in US6376551B1, “Treatment of chronic fatigue syndrome” (Knoll Pharmaceutical Company, priority 1999, dated 2002).

Key:
[1] = molecular target: [3H]Noradenaline reuptake in rat brain tissue; assay: in vitro [3H]noradrenaline reuptake inhibition in rat brain tissue; assay type: biochemical; conditions: means of >3 separate determinations
[2] = molecular target: [3H]Dopamine reuptake in rat brain tissue; assay: in vitro [3H]dopamine reuptake inhibition in rat brain tissue; assay type: biochemical; conditions: means of >3 separate determinations

Compound | Ki [1] [nM] | Ki [2] [nM]
COc1ccc(C(CN(C)C)C2(O)CCCCC2)cc1 (stereo not shown) [Venlafaxine] | 196 | 2590
CC(NC(C)(C)C)C(=O)c1cccc(Cl)c1 (stereo not shown) [Bupropion] | 2590 | 409
